Data reported in publication PMC12059926, “Development and Biological Assessment of Thiazole-Based Pyridines for Targeted Therapy in Lung Cancer” (ACS Omega, 2025).
In brackets after ≈: the same amount, converted by molar mass.

What was measured:
[1] = tested on: A549 cells; experiment: Mitochondrial membrane potential (JC-1) by flow cytometry; type: cell-based, human; conditions: for % Mitochondrial membrane depolarized cells / % Mitochondrial membrane polarized cells: IC50 dose, JC-1
From the text: The mitochondrial membrane potential provides information about the state of electrons during ATP production through oxidative phosphorylation, which is essential for cellular viability. Mitochondrial dysfunction occurs when this electrical regulation is disturbed and can occur in various diseases and the process of apoptosis.[23] […] Compounds 2m, 2g, and 2c followed this, with depolarization levels exceeding 21%. The mitochondrial dysfunction in compound 2m can be considered a contributing factor to apoptosis.
Cell staining with JC-1 was performed according to the manufacturer’s recommendations for the BD , Pharmingen Flow Cytometry Kit. […] Compounds were applied at IC50 doses of no more than 1 × 10^6/mL per well in 6-well plates. After treatment, each cell suspension was transferred to a 15 mL polystyrene centrifuge tube, the cells were centrifuged at 400g for 5 min, and the supernatant was removed. 0.5 mL of freshly prepared working solution was added to each pellet, and the solution was vortexed. The test cells were soaked in JC-1 working solution at 37 °C for 10–15 min, and the cells were washed twice. After centrifugation at 400g for 5 min, each cell pellet was suspended in 0.5 mL of 1X assay buffer and vortexed. The cells were then analyzed by flow cytometer.
(§1) The apoptotic results (Annexin V-FITC, Caspase 3, JC-1) were evaluated by flow cytometry using FACS Diva Version 6.1.1. software, and the apoptotic cells were determined as the percentage of cells.

[2] = tested on: caspase-3 in A549 cells; experiment: Caspase-3 activation; type: cell-based, human; conditions: 24 h
From the text: Caspases can take part in the cell death mechanism through both intrinsic and extrinsic pathways, with caspase-3 being the first enzyme activated in the apoptosis process.[24] Activation of the caspase-3 enzyme by the compounds, indicated as caspase-3 positive, and inhibition, indicated as caspase-3 negative, are presented in percentage terms in Table 5.
A Spectrofluorometric Caspase-3 assay kit (BD Pharmingen, Franklin Lakes, NJ) was used for determining Caspase-3 activation by measuring the caspase-3 or DEVD-cleaving activity. Initially, A549 cells at a concentration of 1 × 10^6 cells/mL underwent a washing process using phosphate-buffered saline (PBS). Subsequently, they were suspended in a cold solution known as cell lysis buffer and kept on ice for a duration of 30 min. […] In each reaction, a mixture of […] of diluted Ac DEVD-AMC (a synthetic tetrapeptide fluorogenic substrate used to measure caspase-3 activity) and 0.2 mL of 1x HEPES buffer was added to a well. Then, […] of cell lysate was introduced into each well/reaction. The reaction mixtures were incubated at 37 °C for 1 h. The amount of AMC released from Ac-DEVD-AMC was measured by using a microplate reader (PerkinElmer/Victor/X3) with an excitation wavelength of 380 nm and an emission wavelength of 460 nm. Apoptotic cell lysates containing active caspase-3 produced significant emissions compared to controls. In addition, the AMC emission of nonapoptotic control cell lysates was taken as 100%, and the emission of other cell lysates was measured relative to the emission of control cells. All experiments were repeated in duplicate. Active compounds, which are the most cytotoxic compounds, were evaluated for caspase-3 activation using previously published procedures.[40],[44]
as §1

[3] = tested on: A549 cells; experiment: Annexin V-FITC/propidium iodide apoptosis detection by flow cytometry; type: cell-based, human; conditions: IC50 dose, 24 h
Experimental: To determine whether the antiproliferative effects of the compounds on the A549 cell line proceed through the apoptotic or necrotic pathway, the assay was performed with Annexin V-FITC/propidium iodide dyes in a flow cytometry device. […] At least 10,000 cells were analyzed, and quadrant analysis was performed. The results are presented as early apoptotic cells, late apoptotic cells, viable cells, and necrotic cells in Table 3, and as a diagram in Figure 1. In control cells, the number of viable cells was 92.04%, necrotic cells were 1.16%, early apoptotic cells were 3.43%, and late apoptotic cells were 3.28%. […] Among the compounds, 2m was the most apoptosis-inducing compound, with 14.99% early apoptotic and 10.63% late apoptotic cell percentages. […] This compound was followed by compound 2c with a 13.79% early apoptotic cells and 4.03% late apoptotic cells. Among the compounds, compound 2o induced early apoptosis the least (1.87%) and necrosis the most (3.10%). […] Nonapoptotic cell death methods, such as necroptosis and pyroptosis, can be considered for the aforementioned compounds.
The compounds were treated with A549 cells at IC50 doses, and early and late apoptosis, necrosis, and viable cell ratios were determined as percentages. Cells were seeded at 37 °C in humidified air containing 5% CO2 with 10^5 cells/plate in each well. A549 cells were collected, washed twice with ice-cold PBS, and resuspended in 100 μL of binding buffer. Five μL (5 μg/mL) of Annexin V-FITC and PI were added to the cells and incubated for 15 min in the dark at room temperature (20–25 °C). Then, 400 μL of binding buffer was added to the mixture samples and analyzed on a flow cytometer. Quadrant analyses were also presented.[41] Compounds 2a, 2b, 2c, 2j, 2m, and 2o, with a satisfactory cytotoxic profile, were examined via flow cytometry to assess the apoptosis/necrosis cell ratio using previously published procedures.[42]
as §1

[4] = tested on: A549 lung cancer cell line; experiment: MTT cytotoxicity assay on A549 lung cancer cells; type: cell-based, human; conditions: for IC50: Homo sapiens; for SI: selectivity index: L929 versus A549
Experimental: (§2) The synthesized final compounds (2a–2o) were initially evaluated for their cytotoxic effects to assess their anticancer activity against A549 lung cancer cells. The healthy cell line L929 (mouse fibroblast cell line) was also used to determine the selective antiproliferative properties of the compounds.
(§3) The human lung cancer cell line A549 and mouse fibroblast cell line L929 were used to evaluate the cytotoxicity of the compounds. Cells propagated under the specified conditions were cultured in 96-well plates at 5 × 10^3 cells/well. […] At the end of the incubation period, cell viability was determined by measuring the absorbance of the purple color formed by the breakdown of the MTT dye at 540 nm. Half-maximal inhibitory concentrations (IC50) were determined based on the tested concentrations of the compounds. The tests were triplicated.[38] The MTT assay for cytotoxicity of compounds was determined according to previously published procedures.[39],[40]
(§4) The concentration that inhibits 50% of the cell population was calculated as IC50 using GraphPad Prism 9.0 statistical software program, and standard deviation values were analyzed. Data are expressed as mean ± SD. Comparisons were made using one-way ANOVA for continuous variables with normal distribution, and Tukey’s test was used for post hoc analysis of group differences. p < 0.05 was considered statistically significant.
(§5) The cell viability value of the control group was considered 100%, and all viability values were calculated using the formula below. The experiment was performed in 3 replicates. [drawing 2]

[5] = target: T1, MMP-9 enzyme (Homo sapiens, UniProt P14780); experiment: MMP-9 enzyme inhibition, colorimetric kit; type: biochemical
T1 construct: purchased Enzo Life Sciences Inc. (Farmingdale, NY, USA)
T1 sequence (P14780 107-444 limits assumed): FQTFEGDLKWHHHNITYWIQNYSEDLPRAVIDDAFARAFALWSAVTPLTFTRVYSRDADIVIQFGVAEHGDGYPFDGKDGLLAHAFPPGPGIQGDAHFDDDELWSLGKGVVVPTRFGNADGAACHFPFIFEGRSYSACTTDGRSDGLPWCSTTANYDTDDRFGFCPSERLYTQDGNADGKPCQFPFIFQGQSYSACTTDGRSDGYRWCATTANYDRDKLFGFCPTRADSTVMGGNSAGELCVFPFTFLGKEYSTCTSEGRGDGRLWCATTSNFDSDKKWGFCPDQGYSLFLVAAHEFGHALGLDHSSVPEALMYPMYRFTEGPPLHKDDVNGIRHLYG
Experimental: Compounds (2a–2o) were tested to determine their MMP-9 enzyme inhibition potential. The compounds were tested at a concentration of 100 μM, and the standard molecule NNGH at a concentration of 1.3 μM.
MMP-9 inhibition was assessed using a colorimetric kit from Enzo Life Sciences Inc. (Farmingdale, NY, USA), following procedures similar to those described in previous studies.[25],[26] A thiopeptide was used as a chromogenic substrate (Ac-PLG-[2-mercapto-4-methyl-pentanoyl]-LG-OC2H5). 2-Nitro-5-thiobenzoic acid, formed by the reaction of the sulfhydryl group produced as a result of hydrolysis of the thioester by the MMP-9 enzyme and then reaction with DTNB [5,5′-dithiobis(2-nitrobenzoic acid), Ellman’s reagent], gives absorbance at 412 nm in a microplate reader (BioTek, PowerWave, Gen5 software, Winooski, VT, USA). Based on these absorptions, MMP-9 inhibition concentrations were determined. The assays were performed in triplicate. NNGH (N-isobutyl-N-(4-methoxyphenylsulfonyl)glycyl hydroxamic acid) was used as a control inhibitor. Data were shown as mean ± SD. The inhibitor % remaining activity of MMPs was calculated using the following equation:
Inhibitor% activity remaining = (V inhibitor/V control) × 100.
The inhibition (percent) of MMPs was calculated using the following equation: [drawing 1]

[6] = tested on: L929 (mouse fibroblast cell line); experiment: MTT cytotoxicity assay on L929 healthy cells; type: cell-based; conditions: mean ± SD
Experimental: as §2, §3, §4, §5

SMILES	% Mitochondrial membrane depolarized cells [1] [%]	% Mitochondrial membrane polarized cells [1] [%]	% Caspase-3 negative cells [2] [%]	% Caspase-3 positive cells [2] [%]	Q1-UL necrotic cells [3] [%]	Q1-UR late apoptotic cells [3] [%]	IC50 [6] [µg/mL]	IC50 ([4]; A549 cells, MTT, mean ± SD) [µg/mL]	SI: selectivity index [4]	Q1-LL viable cells [3] [%]	Q1-LR early apoptotic cells [3] [%]	further results
N.N.[Cl][Pt][Cl] [Cisplatin, reference compound]	36.27	62.15	75.56	11.65	6.56	31.29						total apoptosis (early + late apoptotic cells) [3]: 62.37%; IC50 A549 ([4]; A549 cells, MTT, mean ± SD): 12.65 ± 0.38 µg/mL
COc1ccc(OC)c(-c2csc(NN=Cc3ccccn3)n2)c1 [Compound 2a, 4-(2,5-Dimethoxyphenyl)-2-[2-(pyridin-2 ylmethylene)hydrazinyl]thiazole]							4.36 ± 0.32 (≈ 12.8 µM)	7.3 ± 0.33 (≈ 21.4 µM)	0.60			MMP-9 inhibition, result in words ([5]; compared with 2f): less active than 2f (2,5-dimethoxypehnyl) or inactive
CS(=O)(=O)c1ccc(-c2csc(NN=Cc3ccccn3)n2)cc1 [Compound 2b, 4-(4-(Methylsulfonyl)phenyl)-2-(2-(pyridin-2-ylmethylene)hydrazinyl)thiazole]	47.96	54.51	84.70	7.73	0.33	2.28	31.2 ± 0.56 (≈ 87.2 µM)	9.93 ± 0.37 (≈ 27.7 µM)		90.44	6.95	mitochondrial membrane depolarization relative to cisplatin ([1]; versus cisplatin): approximately 1.5 times; apoptosis induction, result in words [3]: did not significantly induce apoptosis
Oc1ccc(-c2csc(NN=Cc3ccccn3)n2)cc1O [Compound 2d, 4-(2-(2-(Pyridin-2-ylmethylene)hydrazinyl)thiazol-4-yl)benzene-1,2-diol]							9.2 ± 0.36 (≈ 29.5 µM)	4.7 ± 0.6 (≈ 15 µM)	1.96			
Clc1ccc(-c2csc(NN=Cc3ccccn3)n2)cc1Cl [Compound 2e, 4-(3,4-Dichlorophenyl)-2-(2-(pyridin-2-ylmethylene)hydrazinyl)thiazole]							4.87 ± 0.3 (≈ 13.9 µM)	4.56 ± 0.31 (≈ 13.1 µM)	1.07			inhibition at 100 µM ([5]; compounds at 100 μM, mean ± SD): 30.3 ± 2.64%
C(=NNc1nc(-c2ccc(-c3ccccc3)cc2)cs1)c1cccnc1 [Compound 2h, 4-([1,1’-Biphenyl]-4-yl)-2-(2-(pyridin-3-ylmethylene)hydrazinyl)thiazole]							15.2 ± 0.53 (≈ 42.7 µM)	9.93 ± 0.42 (≈ 27.9 µM)	1.53			
Clc1ccc(-c2csc(NN=Cc3cccnc3)n2)cc1Cl [Compound 2j, 4-(3,4-Dichlorophenyl)-2-(2-(pyridin-3-ylmethylene)hydrazinyl)thiazole]	15.40	84.75	97.47	0.96	1.68	3.31	9.76 ± 0.45 (≈ 27.9 µM)	6.58 ± 0.35 (≈ 18.8 µM)	1.48	91.05	3.96	apoptosis induction, result in words [3]: did not significantly induce apoptosis
CS(=O)(=O)c1ccc(-c2csc(NN=Cc3ccncc3)n2)cc1 [Compound 2l, 4-(4-(Methylsulfonyl)phenyl)-2-(2-(pyridin-4-ylmethylene)hydrazinyl)thiazole]							6.74 ± 0.41 (≈ 18.8 µM)	4.7 ± 0.3 (≈ 13.1 µM)	1.43			
Clc1ccc(-c2csc(NN=Cc3ccncc3)n2)cc1Cl [Compound 2o, 4-(3,4-Dichlorophenyl)-2-(2-(pyridin-4-ylmethylene)hydrazinyl)thiazole]	12.85	87.73	25.00	0.00	3.10	7.92	51.9 ± 0.58 (≈ 149 µM)	5.04 ± 0.31 (≈ 14.4 µM)		87.11	1.87	
COc1ccc(S(=O)(=O)N(CC(=O)NO)CC(C)C)cc1 [NNGH, N-isobutyl-N-(4-methoxyphenylsulfonyl)glycyl hydroxamic acid, reference compound]												MMP-9 inhibition % ([5]; standard at 1.3 μM, mean ± SD): 93.56 ± 1.78%
